Test results reported in the NIST ThermoML archive (doi:10.1021/je0255980).
Values joined by “and” are separate entries in the source; they are usually repeats but may differ in a detail not shown here. Identical values can stand only once.

Settings: Liquid

CC(C)COC(C)(C)C [isobutyl tert-butyl ether]
Settings | vapor or sublimation pressure [kPa]
273.3 K | 0.6788
275.4 K | 0.7463
276.4 K | 0.7981
278.5 K | 0.9
278.6 K | 0.938
280.4 K | 0.9803
282.5 K | 1.207
283.5 K | 1.362
284.6 K | 1.398
287.6 K | 1.664
288.4 K | 1.769
290.6 K | 1.996
293.4 K | 2.354
293.6 K | 2.439
295.6 K | 2.686
298.4 K | 3.187
298.7 K | 3.146
301.8 K | 3.723
303.4 K | 4.026
304.8 K | 4.451
308.4 K | 5.224

CCC(C)(C)OC [2-methoxy-2-methylbutane]
Settings | vapor or sublimation pressure [kPa]
274.2 K | 2.693
276.2 K | 2.998
278.2 K | 3.315
280.2 K | 3.8
282.8 K | 4.422
283.8 K | 4.678
287.8 K | 5.69
292.9 K | 7.603
297.8 K | 9.142
302.8 K | 12.31
307.8 K | 14.55

CCOC(C)(C)CC(C)(C)C [ethyl 1,1,3,3-tetramethylbutyl ether]
Settings | vapor or sublimation pressure [kPa]
274.3 K | 0.0913
277.2 K | 0.1201
280.1 K | 0.1414
283.2 K | 0.1829
286.1 K | 0.2218
289.2 K | 0.2772
292.2 K | 0.339
295.2 K | 0.4146
298.2 K | 0.5117
301.2 K | 0.6018

COC(C)(C)CC(C)(C)C [methyl 1,1,3,3-tetramethylbutyl ether]
Settings | vapor or sublimation pressure [kPa]
276.2 K | 0.1656
277.3 K | 0.1859
278.3 K | 0.1958
280.3 K | 0.2383
283.2 K | 0.2818
283.3 K | 0.2759
286.3 K | 0.356
288.1 K | 0.3919
289.3 K | 0.4126
292.3 K | 0.5102
293.3 K | 0.5636
295.2 K | 0.6069
298 K | 0.7478
298.2 K | 0.7352
301.2 K | 0.8887
303.2 K | 1.022
304.2 K | 1.07
308 K | 1.339

CCOC(C)(C)CC [1,1-dimethylpropyl ethyl ether]
Settings | vapor or sublimation pressure [kPa]
274.2 K | 1.413
276.2 K | 1.614
278.2 K | 1.821
280.2 K | 2.055
282.2 K | 2.341
284.2 K | 2.67
287.2 K | 3.214
290.2 K | 3.744
293.2 K | 4.439
296.2 K | 5.272
299.2 K | 6.128
302.2 K | 7.186

CCCCOC(C)(C)CC(C)(C)C [butyl 1,1,3,3-tetramethylbutyl ether]
Settings | vapor or sublimation pressure [kPa]
278.3 K | 0.0128
281.3 K | 0.0165
284.3 K | 0.0206
287.3 K | 0.0269
290.3 K | 0.0324
293.3 K | 0.0413
296.3 K | 0.053
299.2 K | 0.0654
302.2 K | 0.0797
305.2 K | 0.1003
308.2 K | 0.1155
311.2 K | 0.1474
314.2 K | 0.1741

CCCCCCOC(C)(C)CC(C)(C)C [pentane, 2-hexoxy-2,4,4-trimethyl-]
Settings | vapor or sublimation pressure [kPa]
295.8 K | 0.0053
298.8 K | 0.0069
301.9 K | 0.0086
304.9 K | 0.0111
308 K | 0.0141
311 K | 0.0162
314.1 K | 0.0215
317.1 K | 0.0255
320.1 K | 0.0321
323.1 K | 0.0406
326.2 K | 0.0502

CCCCCOC(C)(C)CC(C)(C)C [pentane, 2-pentoxy-2,4,4-trimethyl-]
Settings | vapor or sublimation pressure [kPa]
277.5 K | 0.0037
279.5 K | 0.0044
281.5 K | 0.0052
283.5 K | 0.0062
285.6 K | 0.0073
288.6 K | 0.0095
291.6 K | 0.0124
294.7 K | 0.0155
297.7 K | 0.0194
300.7 K | 0.0247
303.2 K | 0.03

CCCOC(C)(C)CC(C)(C)C [pentane, 2-propoxy-2,4,4-trimethyl-]
Settings | vapor or sublimation pressure [kPa]
274.3 K | 0.0336
277.3 K | 0.0443
278.2 K | 0.0491
280.2 K | 0.058
283.4 K | 0.07
286.2 K | 0.0913
289.3 K | 0.1179
292.3 K | 0.1404
294.4 K | 0.1616
296.3 K | 0.1858
297.4 K | 0.2008
297.8 K | 0.2103
298.3 K | 0.2196
299.3 K | 0.2293
300.3 K | 0.2411
301.2 K | 0.2557
302.2 K | 0.2825
303.2 K | 0.2956
304.3 K | 0.3231
305.2 K | 0.3294
306.2 K | 0.3595
307.2 K | 0.382
308.2 K | 0.3898

CCCOC(C)(C)CC [1,1-dimethylpropyl propyl ether]
Settings | vapor or sublimation pressure [kPa]
274.2 K | 0.4002
276.2 K | 0.4448
278.1 K | 0.5329
280.2 K | 0.6121
282.2 K | 0.7161
284.2 K | 0.7938
285.1 K | 0.8034
287.3 K | 0.9974
290.3 K | 1.199
293.3 K | 1.434
296.2 K | 1.799
299.2 K | 2.072
302.2 K | 2.332

CCCCOC(C)(C)CC [butyl 1,1-dimethylpropyl ether]
Settings | vapor or sublimation pressure
274.2 K | 0.1111 kPa
276.2 K | 0.1278 kPa
278.2 K | 0.1602 kPa and 0.1508 kPa
281.3 K | 0.1842 kPa
283.2 K | 0.2344 kPa and 0.2179 kPa
285.2 K | 0.2509 kPa
286.2 K | 0.2632 kPa
288.2 K | 0.3232 kPa
290.2 K | 0.3551 kPa
293.2 K | 0.4784 kPa and 0.4372 kPa
296.2 K | 0.5522 kPa
298.2 K | 0.6658 kPa and 0.6132 kPa
301.2 K | 0.7443 kPa
303.2 K | 0.901 kPa
304.2 K | 0.9012 kPa
308.2 K | 1.199 kPa
